Assay results published in US10835531B1, “Methods for predicting drug responsiveness in cancer patients” (Oncology Venture ApS, priority 2019, dated 2020).

What was measured:
[1] = tested on: patients with RCC, GIST, endometrial cancer, HCC or breast cancer; experiment: Clinical response rate as a function of DRP cutoff, all five cohorts of Examples 2-6; type: in vivo, human
Description: Gene expression data (Affymetrix) and clinical response data was obtained from 73 patients in the dovitinib arm. The DRP was applied to calculate a score for each patient (mean of genes in Table 2 minus mean of genes in Table 3). The score for each patient was compared to a reference population with the same diagnosis. For the reference population the dovitinib and sorafenib arms were combined (N=148). This allowed the calculation of a percentile score for each patient. Patients were grouped according to RECIST v1.1 response (centrally assessed) and included in FIG. 1.
Gene expression data (Affymetrix) and clinical response data was obtained from 14 patients. The DRP was applied to calculate a score for each patient (mean of genes in Table 2 minus mean of genes in Table 3). The score for each patient was compared to a reference population with the same diagnosis. For the reference population public data sets were downloaded from the GEO database (GSE20708, GSE17743, GSE8167, N=83). This allowed the calculation of a percentile score for each patient. Patients were grouped according to RECIST v1.1 response (locally assessed, no central assessment) and included in FIG. 1.
Gene expression data (Affymetrix) and clinical response data was obtained from 29 patients. The DRP was applied to calculate a score for each patient (mean of genes in Table 2 minus mean of genes in Table 3). The score for each patient was compared to a reference population with the same diagnosis. For the reference population a public data set was downloaded from the GEO database (GSE17025, N=91). This allowed the calculation of a percentile score for each patient. Patients were grouped according to RECIST v1.1 response (central assessment) and included in FIG. 1.
Gene expression data (Affymetrix) and clinical response data was obtained from 6 patients in the dovitinib arm. The DRP was applied to calculate a score for each patient (mean of genes in Table 2 minus mean of genes in Table 3). The score for each patient was compared to a reference population with the same diagnosis. […]

[2] = tested on: COLO 205; experiment: NCI60 panel growth inhibition; type: cell-based; details: Homo sapiens; COLO 205 cell line
Description: (§1) The human tumor cell lines of the cancer screening panel may be grown in RPMI 1640 medium containing 5% fetal bovine serum and 2 mM L-glutamine. Cells may be inoculated into 96 well microtiter plates in 100 μL at plating densities ranging from 5,000 to 40,000 cells/well depending on the doubling time of individual cell lines. After cell inoculation, the microtiter plates may be incubated at 37° C., 5% CO2, 95% air and 100% relative humidity for 24 hours prior to addition of experimental compounds. After 24 hours, two plates of each cell line may be fixed in situ with TCA, to represent a measurement of the cell population for each cell line at the time of compound addition (Tz). Experimental compounds may be solubilized in dimethyl sulfoxide at 400-fold the desired final maximum test concentration and stored frozen prior to use. At the time of compound (e.g., dovitinib or a pharmaceutically acceptable salt thereof) addition, an aliquot of frozen concentrate may be thawed and diluted to twice the desired final maximum test concentration with complete medium containing 50 μg/ml Gentamicin. Additional four, 10-fold or ½ log serial dilutions are made to provide a total of five concentrations plus control. […] Following compound (e.g., dovitinib or a pharmaceutically acceptable salt thereof) addition, the plates may be incubated for an additional 48 h at 37° C., 5% CO2, 95% air, and 100% relative humidity. For adherent cells, the assay may be terminated by the addition of cold TCA. Cells may be fixed in situ by the gentle addition of 50 μl of cold 50% (w/v) TCA (final concentration, 10% TCA) and incubated for 60 minutes at 4° C. The supernatant may be discarded, and the plates may be washed five times with tap water and air-dried. Sulforhodamine B (SRB) solution (100 μl) at 0.4% (w/v) in 1% acetic acid may be added to each well, and plates are incubated for 10 minutes at room temperature. After staining, unbound dye may be removed by washing five times with 1% acetic acid and the plates may be air-dried. […] Values are calculated for each of these three parameters if the level of activity is reached; however, if the effect is not reached or is exceeded, the value for that parameter is expressed as greater or less than the maximum or minimum concentration tested.

[3] = tested on: SF-268; experiment: NCI60 panel growth inhibition; type: cell-based; details: Homo sapiens; SF-268 cell line
Description: as §1

[4] = tested on: DU-145; experiment: NCI60 panel growth inhibition; type: cell-based; details: Homo sapiens; DU-145 cell line
Description: as §1

[5] = tested on: NCl-H322M; experiment: NCI60 panel growth inhibition; type: cell-based; details: Homo sapiens; NCl-H322M cell line
Description: as §1

[6] = tested on: NCl/ADR-RES; experiment: NCI60 panel growth inhibition; type: cell-based; details: Homo sapiens; NCl/ADR-RES cell line
Description: as §1

[7] = tested on: UO-31; experiment: NCI60 panel growth inhibition; type: cell-based; details: Homo sapiens; UO-31 cell line
Description: as §1

[8] = tested on: K-562; experiment: NCI60 panel growth inhibition; type: cell-based; details: Homo sapiens, K562; K-562 cell line
Description: as §1

[9] = tested on: CCRF-CEM; experiment: NCI60 panel growth inhibition; type: cell-based; details: Homo sapiens; CCRF-CEM cell line
Description: as §1

[10] = tested on: SR; experiment: NCI60 panel growth inhibition; type: cell-based; details: Homo sapiens; SR cell line
Description: as §1

[11] = tested on: A498; experiment: NCI60 panel growth inhibition; type: cell-based; details: Homo sapiens; A498 cell line
Description: as §1

[12] = tested on: MALME-3M; experiment: NCI60 panel growth inhibition; type: cell-based; details: Homo sapiens; MALME-3M cell line
Description: as §1

[13] = tested on: HT29; experiment: NCI60 panel growth inhibition; type: cell-based; details: Homo sapiens, HT-29; HT29 cell line
Description: as §1

[14] = tested on: NCl-H23; experiment: NCI60 panel growth inhibition; type: cell-based; details: Homo sapiens; NCl-H23 cell line
Description: as §1

[15] = tested on: OVCAR-3; experiment: NCI60 panel growth inhibition; type: cell-based; details: Homo sapiens; OVCAR-3 cell line
Description: as §1

[16] = tested on: SK-OV-3; experiment: NCI60 panel growth inhibition; type: cell-based; details: Homo sapiens; SK-OV-3 cell line
Description: as §1

[17] = tested on: RXF 393; experiment: NCI60 panel growth inhibition; type: cell-based; details: Homo sapiens; RXF 393 cell line
Description: as §1

[18] = tested on: HOP-92; experiment: NCI60 panel growth inhibition; type: cell-based; details: Homo sapiens; HOP-92 cell line
Description: as §1

[19] = tested on: ACHN; experiment: NCI60 panel growth inhibition; type: cell-based; details: Homo sapiens; ACHN cell line
Description: as §1

[20] = tested on: SK-MEL-2; experiment: NCI60 panel growth inhibition; type: cell-based; details: Homo sapiens; SK-MEL-2 cell line
Description: as §1

[21] = tested on: HCT-15; experiment: NCI60 panel growth inhibition; type: cell-based; details: Homo sapiens; HCT-15 cell line
Description: as §1

[22] = tested on: EKVX; experiment: NCI60 panel growth inhibition; type: cell-based; details: Homo sapiens; EKVX cell line
Description: as §1

[23] = tested on: PC-3; experiment: NCI60 panel growth inhibition; type: cell-based; details: Homo sapiens; PC-3 cell line
Description: as §1

[24] = tested on: OVCAR-4; experiment: NCI60 panel growth inhibition; type: cell-based; details: Homo sapiens; OVCAR-4 cell line
Description: as §1

[25] = tested on: BT-549; experiment: NCI60 panel growth inhibition; type: cell-based; details: Homo sapiens; BT-549 cell line
Description: as §1

[26] = tested on: HCC-2998; experiment: NCI60 panel growth inhibition; type: cell-based; details: Homo sapiens; HCC-2998 cell line
Description: as §1

[27] = tested on: NCl-H226; experiment: NCI60 panel growth inhibition; type: cell-based; details: Homo sapiens; NCl-H226 cell line
Description: as §1

[28] = tested on: TK-10; experiment: NCI60 panel growth inhibition; type: cell-based; details: Homo sapiens; TK-10 cell line
Description: as §1

[29] = tested on: CAKI-1; experiment: NCI60 panel growth inhibition; type: cell-based; details: Homo sapiens; CAKI-1 cell line
Description: as §1

[30] = tested on: HCT-116; experiment: NCI60 panel growth inhibition; type: cell-based; details: Homo sapiens; HCT-116 cell line
Description: as §1

[31] = tested on: NCl-H522; experiment: NCI60 panel growth inhibition; type: cell-based; details: Homo sapiens; NCl-H522 cell line
Description: as §1

[32] = tested on: SK-MEL-5; experiment: NCI60 panel growth inhibition; type: cell-based; details: Homo sapiens; SK-MEL-5 cell line
Description: as §1

[33] = tested on: SF-295; experiment: NCI60 panel growth inhibition; type: cell-based; details: Homo sapiens; SF-295 cell line
Description: as §1

[34] = tested on: SNB-19; experiment: NCI60 panel growth inhibition; type: cell-based; details: Homo sapiens; SNB-19 cell line
Description: as §1

[35] = tested on: MDA-MB-435; experiment: NCI60 panel growth inhibition; type: cell-based; details: Homo sapiens; MDA-MB-435 cell line
Description: as §1

[36] = tested on: IGROV1; experiment: NCI60 panel growth inhibition; type: cell-based; details: Homo sapiens, IGROV-1; IGROV1 cell line
Description: as §1

[37] = tested on: SN12C; experiment: NCI60 panel growth inhibition; type: cell-based; details: Homo sapiens; SN12C cell line
Description: as §1

[38] = tested on: MOLT-4; experiment: NCI60 panel growth inhibition; type: cell-based; details: Homo sapiens; MOLT-4 cell line
Description: as §1

[39] = tested on: A549/ATCC; experiment: NCI60 panel growth inhibition; type: cell-based; details: Homo sapiens; A549/ATCC cell line
Description: as §1

[40] = tested on: UACC-62; experiment: NCI60 panel growth inhibition; type: cell-based; details: Homo sapiens; UACC-62 cell line
Description: as §1

[41] = tested on: M14; experiment: NCI60 panel growth inhibition; type: cell-based; details: Homo sapiens; M14 cell line
Description: as §1

[42] = tested on: NCl-H460; experiment: NCI60 panel growth inhibition; type: cell-based; details: Homo sapiens; NCl-H460 cell line
Description: as §1

[43] = tested on: MDA-MB-468; experiment: NCI60 panel growth inhibition; type: cell-based; details: Homo sapiens; MDA-MB-468 cell line
Description: as §1

[44] = tested on: UACC-257; experiment: NCI60 panel growth inhibition; type: cell-based; details: Homo sapiens; UACC-257 cell line
Description: as §1

[45] = tested on: SK-MEL-28; experiment: NCI60 panel growth inhibition; type: cell-based; details: Homo sapiens; SK-MEL-28 cell line
Description: as §1

[46] = tested on: MDA-MB-231/ATCC; experiment: NCI60 panel growth inhibition; type: cell-based; details: Homo sapiens; MDA-MB-231/ATCC cell line
Description: as §1

[47] = tested on: SW-620; experiment: NCI60 panel growth inhibition; type: cell-based; details: Homo sapiens; SW-620 cell line
Description: as §1

[48] = tested on: 786-0; experiment: NCI60 panel growth inhibition; type: cell-based; details: Homo sapiens; 786-0 cell line
Description: as §1

[49] = tested on: OVCAR-5; experiment: NCI60 panel growth inhibition; type: cell-based; details: Homo sapiens; OVCAR-5 cell line
Description: as §1

[50] = tested on: U251; experiment: NCI60 panel growth inhibition; type: cell-based; details: Homo sapiens, U-251; U251 cell line
Description: as §1

[51] = tested on: SF-539; experiment: NCI60 panel growth inhibition; type: cell-based; details: Homo sapiens; SF-539 cell line
Description: as §1

[52] = tested on: RPMI-8226; experiment: NCI60 panel growth inhibition; type: cell-based; details: Homo sapiens; RPMI-8226 cell line
Description: as §1

[53] = tested on: KM12; experiment: NCI60 panel growth inhibition; type: cell-based; details: Homo sapiens; KM12 cell line
Description: as §1

[54] = tested on: HOP-62; experiment: NCI60 panel growth inhibition; type: cell-based; details: Homo sapiens; HOP-62 cell line
Description: as §1

[55] = tested on: HS 578T; experiment: NCI60 panel growth inhibition; type: cell-based; details: Homo sapiens; HS 578T cell line
Description: as §1

[56] = tested on: LOX IMVI; experiment: NCI60 panel growth inhibition; type: cell-based; details: Homo sapiens; LOX IMVI cell line
Description: as §1

[57] = tested on: MCF7; experiment: NCI60 panel growth inhibition; type: cell-based; details: Homo sapiens; MCF7 cell line
Description: as §1

[58] = tested on: OVCAR-8; experiment: NCI60 panel growth inhibition; type: cell-based; details: Homo sapiens; OVCAR-8 cell line
Description: as §1

[59] = tested on: SNB-75; experiment: NCI60 panel growth inhibition; type: cell-based; details: Homo sapiens; SNB-75 cell line
Description: as §1

[60] = tested on: T-47D; experiment: NCI60 panel growth inhibition; type: cell-based; details: Homo sapiens, T47D; T-47D cell line
Description: as §1

[61] = tested on: HL-60(TB); experiment: NCI60 panel growth inhibition; type: cell-based; details: Homo sapiens; HL-60(TB) cell line
Description: The human tumor cell lines of the cancer screening panel may be grown in RPMI 1640 medium containing 5% fetal bovine serum and 2 mM L-glutamine. Cells may be inoculated into 96 well microtiter plates in 100 μL at plating densities ranging from 5,000 to 40,000 cells/well depending on the doubling time of individual cell lines. After cell inoculation, the microtiter plates may be incubated at 37° C., 5% CO2, 95% air and 100% relative humidity for 24 hours prior to addition of experimental compounds. After 24 hours, two plates of each cell line may be fixed in situ with TCA, to represent a measurement of the cell population for each cell line at the time of compound addition (Tz). Experimental compounds may be solubilized in dimethyl sulfoxide at 400-fold the desired final maximum test concentration and stored frozen prior to use. […] Bound stain may be subsequently solubilized with 10 mM trizma base, and the absorbance may be read on an automated plate reader at a wavelength of 515 nm. […] Using the seven absorbance measurements [time zero, (Tz), control growth, (C), and test growth in the presence of compound (e.g., dovitinib or a pharmaceutically acceptable salt thereof) at the five concentration levels (Ti)], the percentage growth may be calculated at each of the compound concentrations levels. […] The compound concentration resulting in total growth inhibition (TGI) is calculated from Ti=Tz. […]

Structure (SMILES): CN1CCN(c2ccc3nc(-c4c(N)c5c(F)cccc5[nH]c4=O)[nH]c3c2)CC1 [dovitinib, 4-amino-5-fluoro-3-[6-(4-methylpiperazin-1-yl)-1H-benzimidazol-2-yl]-1H-quinolin-2-one]
- overall response rate (ORR=CR+PR) ([1]; all five cohorts from Examples 2-6, patients at DRP cutoff of 50): 26%
- overall response rate (ORR=CR+PR) ([1]; all five cohorts from Examples 2-6, patients at DRP cutoff of 80): 35%
- average overall response rate (ORR=CR+PR) ([1]; all five cohorts from Examples 2-6, without the DRP (breast cohort received dovitinib plus fulvestrant)): 16%
- GI50 [2]: 2240 nM
- GI50 [3]: 2190 nM
- GI50 [4]: 1150 nM
- GI50 [5]: 759 nM
- GI50 [6]: 2690 nM
- GI50 [7]: 219 nM
- GI50 [8]: 550 nM
- GI50 [9]: 589 nM
- GI50 [10]: 447 nM
- GI50 [11]: 135 nM
- GI50 [12]: 490 nM
- GI50 [13]: 1410 nM
- GI50 [14]: 2450 nM
- GI50 [15]: 6760 nM
- GI50 [16]: 513 nM
- GI50 [17]: 219 nM
- GI50 [18]: 355 nM
- GI50 [19]: 331 nM
- GI50 [20]: 891 nM
- GI50 [21]: 427 nM
- GI50 [22]: 7590 nM
- GI50 [23]: 1120 nM
- GI50 [24]: 575 nM
- GI50 [25]: 1050 nM
- GI50 [26]: 1320 nM
- GI50 [27]: 355 nM
- GI50 [28]: 7760 nM
- GI50 [29]: 468 nM
- GI50 [30]: 417 nM
- GI50 [31]: 3160 nM
- GI50 [32]: 1780 nM
- GI50 [33]: 6030 nM
- GI50 [34]: 2630 nM
- GI50 [35]: 1070 nM
- GI50 [36]: 251 nM
- GI50 [37]: 676 nM
- GI50 [38]: 331 nM
- GI50 [39]: 562 nM
- GI50 [40]: 3630 nM
- GI50 [41]: 389 nM
- GI50 [42]: 468 nM
- GI50 [43]: 2570 nM
- GI50 [44]: 3390 nM
- GI50 [45]: 1480 nM
- GI50 [46]: 2340 nM
- GI50 [47]: 550 nM
- GI50 [48]: 724 nM
- GI50 [49]: 1780 nM
- GI50 [50]: 550 nM
- GI50 [51]: 427 nM
- GI50 [52]: 1480 nM
- GI50 [53]: 41.7 nM
- GI50 [54]: 1450 nM
- GI50 [55]: 977 nM
- GI50 [56]: 871 nM
- GI50 [57]: 1170 nM
- GI50 [58]: 1450 nM
- GI50 [59]: 977 nM
- GI50 [60]: 10000 nM
- GI50 [61]: 1070 nM
